The source of these data is patent publication US20250186369A1, “COMPOUNDS, COMPOSITIONS, AND METHODS FOR TREATING, AMELIORATING, AND/OR PRVENTING COCAINE USE DISORDER” (Drexel University, priority 2022, published 2025).

The structures appear in SMILES notation.

Data set [1] relates to dopamine transporter (DAT). Nature of the data set: Fast scan cyclic voltammetry of dopamine release and uptake in nucleus accumbens core tissue after i.p. dosing. Particulars: for dopamine release at baseline: FIG. 8B; for dopamine release at baseline / dopamine uptake at baseline: naive rats, i.p. 30 min prior to sacrifice, PRX 0.25 mg/kg, SK608 4 mg/kg, SK609 4 mg/kg, vs saline; for dopamine uptake at baseline: FIG. 8C; for dopamine release after bath-applied cocaine: FIG. 8D; for dopamine release after bath-applied cocaine / inhibition of dopamine uptake by cocaine: same dosing, cocaine bath applied to tissue; for inhibition of dopamine uptake by cocaine: FIG. 8E. It counts as in vivo, rats. On the procedure:
(§1) (FIG. 3A) DA release, (FIG. 3B) DA uptake (Vmax), and (FIG. 3C) DAT sensitivity to cocaine (inhibition of DA uptake; app Km) following vehicle (Veh) or 4 mg/kg SK609.
Naive rats were injected intraperitoneally with saline (SAL), pramipexole (PRX; 0.25 mg/kg), SK608 (608; 4 mg/kg), or SK609 (609; 4 mg/kg) 30 min prior to sacrifice. […] (FIG. 8A) Example dopamine traces, (FIG. 8B) dopamine release and (FIG. 8C) dopamine uptake at baseline, (FIG. 8D) dopamine release and (FIG. 8E) inhibition of dopamine uptake. Data are mean±s.e.m.
as §1
Naive rats were injected intraperitoneally with saline (SAL), pramipexole (PRX; 0.25 mg/kg), SK608 (608; 4 mg/kg), or SK609 (609; 4 mg/kg) 30 min prior to sacrifice. […] (FIG. 8A) Example dopamine traces, (FIG. 8B) dopamine release and (FIG. 8C) dopamine uptake at baseline, (FIG. 8D) dopamine release and (FIG. 8E) inhibition of dopamine uptake. Data are mean s.e.m.

For data set [2], the system named is pDAT. Put plainly: Time course densitometry of pDAT levels in SH-SY5Y-D3R cells. It counts as cell-based. Particulars: PRX 5 nM, SK608 1 μM, SK609 1 μM; for pDAT levels, combined with / post cocaine (CC): FIG. 5B, cocaine 1 μM. As to the method:
FIGS. 5A-5B illustrate that SK609 and its analogues reduce pDAT levels when pretreated with cocaine in a time dependent manner. Time course densitometry analysis of the effects of cocaine (1 μM), PRX (5 nM), SK608 (1 μM), and SK609 (1 μM) on pDAT levels in SH-SY5Y-D3R cells. Different groups of cells were pre-treated with (FIG. 5A) CC, PRX, SK609 and SK608 or (FIG. 5B) CC, CC/PRX, CC/SK609 and CC/SK608 and were collected at the time points indicated. pDAT levels were measured and GAPDH was used as loading control. Data are presented as mean±sd from three independent experiments performed in triplicate.

A short description of data set [3]: Cocaine self-administration on Progressive Ratio (PR) schedule, motivation for cocaine. The following applies: i.p. 2 mg/kg or 4 mg/kg SK609. It counts as in vivo, rodent. As to the method: FIGS. 2A-2B illustrate that SK609 reduces motivation for cocaine in a rodent self-administration model. […] (FIG. 2A) Breakpoints and (FIG. 2B) lever presses following i.p. vehicle, 2 mg/kg or 4 mg/kg SK609. Data are expressed as the mean±s.e.m., percent of baseline responding. *P<0.05.
(FIG. 2A) Breakpoints and (FIG. 2B) lever presses following i.p. vehicle, 2 mg/kg or 4 mg/kg SK609. Data are expressed as the mean±s.e.m., percent of baseline responding. *P<0.05.

The subject of data set [4] is pDAT. Nature of the data set: Western blot / densitometry of pDAT in striatal synaptosomes of cocaine-treated rats. Particulars: cocaine 15 mg/kg pre-treatment, SK609 4 mg/kg. It counts as in vivo. On the procedure: (FIG. 4A) Representative western blots for pDAT, tDAT, D3R, βarr2 and GAPDH on striatal synaptosomes derived from rats treated with either saline (sal) or cocaine (CC) (15 mg/kg) or SK609 (4 mg/kg) or Pramipexole (PRX; (S)-N^6-propyl-4,5,6,7-tetrahydro-1,3-benzothiazole-2,6-diamine) (0.25 mg/kg) with and without cocaine pre-treatment. […] (FIG. 4B) Densitometry analysis of pDAT expression. Data are presented as mean s.e.m. from 3 independent experiments from n=3 rats/group. *p<0.05, **p<0.001.
(FIG. 4A) Representative western blots for pDAT, tDAT, D3βarr2 and GAPDH on striatal synaptosomes derived from rats treated with either saline (sal) or cocaine (CC) (15 mg/kg) or SK609 (4 mg/kg) or Pramipexole (PRX) (0.25 mg/kg) with and without cocaine pre-treatment. (FIG. 4B) Densitometry analysis of pDAT expression. Data are presented as mean±s.e.m. from 3 independent experiments from n=3 rats/group. *p<0.05, **p<0.001.

Data set [5] is described as follows: Self-administration of PRX or SK609 on fixed ratio 1 schedule before and after cocaine (FIG. 7). On the procedure: FIG. 7A: Rats were implanted with jugular catheters and then allowed to self-administer either pramipexole (PRX; 0.25 mg/kg) or SK609 (609; 4 mg/kg) on a 6-hr, fixed ratio 1 schedule of reinforcement (Pre-Cocaine; left gray shading). After 10 days of PRX or SK609 access, rats were switched to cocaine (0.75 mg/kg). Once rats acquired cocaine self-administration behavior (defined as 20 injections of cocaine within a single 6-session) they were allowed another two days of cocaine access (Cocaine; blue shading). Only the last 3 days of cocaine self-administration are plotted. After cocaine self-administration, rats were switched back to PRX and SK609 to assess if these compounds would now maintain reinforced responding (Post-Cocaine; right gray shading). […] Data are mean±s.e.m. Student's t-test. *p<0.05.
After 10 days of PRX or SK609 access, rats were switched to cocaine (0.75 mg/kg). Once rats acquired cocaine self-administration behavior (defined as 20 injections of cocaine within a single 6-session) they were allowed another two days of cocaine access (Cocaine; blue shading). Only the last 3 days of cocaine self-administration are plotted. After cocaine self-administration, rats were switched back to PRX and SK609 to assess if these compounds would now maintain reinforced responding (Post-Cocaine; right gray shading).
Data are mean±s.e.m. Student's t-test. *p<0.05.

Data set [6] can be described thus: SK609 self-administration in rats (FIG. 1). It counts as in vivo. The following applies: rats given access to 4 mg/kg SK609; comparison 0.75 mg/kg cocaine. As to the method:
Shown are injections taken for rats given access to 4 mg/kg SK609 and 0.75 mg/kg cocaine. Dashed line represents acquisition criteria which required 4 consecutive days of 10 injections per session. Cocaine data are aligned to the first day in which rats met acquisition criteria. Data represent mean±s.e.m. *p<0.05, ***p<0.001.
Shown in FIG. 1 are injections taken for rats given access to 4 mg/kg SK609 and 0.75 mg/kg cocaine. Dashed line represents acquisition criteria which required 4 consecutive days of 10 injections per session. Cocaine data are aligned to the first day in which rats met acquisition criteria. Data represent mean s.e.m. *p<0.05, ***p<0.001.

The target in data set [7] is T1, D3 receptor (Homo sapiens, UniProt P35462).
T1 construct: expressed in transfected cells; host or cells: CHO-D3R (or HEK-D3R) cells
T1 sequence (P35462 whole entry): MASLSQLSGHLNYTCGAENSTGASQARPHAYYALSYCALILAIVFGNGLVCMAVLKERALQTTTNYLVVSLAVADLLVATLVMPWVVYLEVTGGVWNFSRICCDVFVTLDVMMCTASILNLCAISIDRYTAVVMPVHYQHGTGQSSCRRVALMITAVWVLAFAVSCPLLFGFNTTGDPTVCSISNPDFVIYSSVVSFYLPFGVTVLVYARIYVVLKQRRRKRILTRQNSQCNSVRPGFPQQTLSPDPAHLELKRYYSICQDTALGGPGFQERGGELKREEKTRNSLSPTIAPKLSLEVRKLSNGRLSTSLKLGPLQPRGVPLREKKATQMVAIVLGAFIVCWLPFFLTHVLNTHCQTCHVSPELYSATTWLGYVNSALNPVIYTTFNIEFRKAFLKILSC
Put plainly: ERK1/2 MAPK activation assay (phosphorylation immunoblot), D3 receptor. Particulars: 1 μM, 2 min, CHO-D3R (or HEK-D3R) cells. The data set is classed as cell-based. As to the method:
(§2) Selected compounds of the disclosure, as well as dopamine (DA) and PD128907 [a commercially available dopamine D2/D3 agonist; (4aR,10bR)-3,4a,4,10b-tetrahydro-4-propyl-2H,5H-[1]benzopyrano-[4,3-b]-1,4-oxazin-9-ol], were tested in an established ERK1/2 MAPK activation assay for dopamine D2 or D3 agonist activity. The results of these side-by-side tests, comprising immunoblot analysis of phosphorylated ERKT/2 MAPK, are illustrated in FIGS. 9-10.
(§3) Functional screening was conducted with vehicle or test compounds using ERK1/2 phosphorylation as endpoint as described herein. 0.4×10^6 CHO-D3R (or HEK-D3R) and CHO-D2R (or HEK-D2R) cells were seeded in 6-well plates and cultured in 3 ml DMEM complete growth medium for 48 h. […]
(§4) Cell lysates were assayed or protein content with DC Protein Assay Kit II (Bio-Rad). […] Total p44/42 MAPK levels in the same blots were also determined with rabbit anti-p44/42 MAPK monoclonal or polyclonal antibody (1:5000, Cell Signaling Technology) after stripping the blots of the same PVDF membrance. Chemiluminescence detection was performed using the SuperSignal West Dura Extended Duration Substrate detection kit (Thermo Scientific, Rockford, IL) and phosphorylated or total ERK1/2 MAPK immunoblots were quantified by densitometry with ImageQuant LAS4000 (GE Healthcare Bio-Sciences, Pittsburgh, PA). […]

In data set [8] the target is T2, D2 receptor (Homo sapiens, UniProt P14416).
T2 construct: expressed in transfected cells; host or cells: CHO-D2R (or HEK-D2R) cells
T2 sequence (P14416 whole entry): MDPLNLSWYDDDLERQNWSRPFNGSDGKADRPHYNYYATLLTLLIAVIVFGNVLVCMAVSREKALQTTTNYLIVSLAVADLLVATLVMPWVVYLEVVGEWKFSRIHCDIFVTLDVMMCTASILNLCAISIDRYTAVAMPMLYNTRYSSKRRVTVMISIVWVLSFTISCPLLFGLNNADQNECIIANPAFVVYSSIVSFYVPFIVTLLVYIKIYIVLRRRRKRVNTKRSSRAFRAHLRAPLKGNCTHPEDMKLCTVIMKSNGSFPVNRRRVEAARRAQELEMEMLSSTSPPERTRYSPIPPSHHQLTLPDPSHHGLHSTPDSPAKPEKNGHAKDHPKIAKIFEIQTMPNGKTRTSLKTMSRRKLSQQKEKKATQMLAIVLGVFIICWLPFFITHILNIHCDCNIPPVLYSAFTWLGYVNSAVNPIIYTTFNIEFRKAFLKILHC
Put plainly: ERK1/2 MAPK activation assay (phosphorylation immunoblot), D2 receptor. The following applies: 1 μM, 2 min, CHO-D2R (or HEK-D2R) cells. The data set is classed as cell-based. As to the method: as §2, §3, §4

For data set [9] the following is noted: in vivo; cited from earlier work.

In the case of `CC(N)CCc1ccc(Cl)cc1` (stereo not drawn) [SK608, 4-(4-chlorophenyl)-butan-2-amine], in data set [1], the “dopamine release at baseline” value is “reduce DA release and uptake”; the “dopamine uptake at baseline” value was “reduce DA release and uptake”; the “dopamine release after bath-applied cocaine” value is “significantly reduced DA release and uptake inhibition by cocaine”; the “inhibition of dopamine uptake by cocaine” value was “significantly reduced DA release and uptake inhibition by cocaine”. Also, the “pDAT levels, combined with / post cocaine (CC)” value in data set [2] is recorded as “significantly reduced pDAT levels”.

On to `CC(N)CCc1ccccc1Cl` (stereo not drawn) [SK609, 4-(2-chlorophenyl)-butan-2-amine], for which the “motivation for cocaine (breakpoints, lever presses)” value in [3] is listed as “reduced motivation for cocaine”. Besides, the “pDAT expression in striatal synaptosomes” value in data set [4] is “reduces expression of pDAT”. Moreover, the “acquisition of self-administration of the compound (reinforcing effect)” value in data set [5] (FIG. 7A, 6-hr fixed ratio 1, PRX 0.25 mg/kg, SK609 4 mg/kg) was “not robust reinforcers”. Further, the DA release entry in data set [1] (FIG. 3A, 4 mg/kg SK609 vs vehicle) is “disrupts dopamine (DA) release and uptake”. Further, in data set [1] (FIG. 3B, 4 mg/kg SK609 vs vehicle), the “DA uptake (Vmax)” value is “disrupts dopamine (DA) release and uptake”. In data set [1], the “dopamine release at baseline” value was “reduce DA release and uptake”; the “dopamine uptake at baseline” value was “reduce DA release and uptake”; the “dopamine release after bath-applied cocaine” value was “significantly reduced DA release and uptake inhibition by cocaine”; the “inhibition of dopamine uptake by cocaine” value was “significantly reduced DA release and uptake inhibition by cocaine”. Besides, the “self-administration (injections taken)” value in data set [6] was “does not support self-administration”. In data set [2], the “pDAT levels, combined with / post cocaine (CC)” value was “significantly reduced pDAT levels”.

On to `CCCN1CCO[C@@H]2c3cc(O)ccc3OC[C@H]21` [PD128609, (4aR,10bR)-3,4a,4,10b-tetrahydro-4-propyl-2H,5H-[1]benzopyrano-[4,3-b]-1,4-oxazin-9-ol], for which the “ERK1/2 phosphorylation induced by activation of D3 receptor” value in data set [7] was “activated both D2 and D3 receptors”. Also, the “ERK1/2 phosphorylation induced by activation of D2 receptor” value in data set [8] is “activated both D2 and D3 receptors”.

With `CCCN[C@H]1CCc2nc(N)sc2C1` [PRX, (S)-N^6-propyl-4,5,6,7-tetrahydro-1,3-benzothiazole-2,6-diamine, reference compound], the “compulsive drug seeking behavior” value in [9] is reported as “producing compulsive drug seeking behavior”. Also, in data set [5] (rat, in vivo), the “overall intake, post-cocaine” value is recorded as “sustained higher overall PRX intake compared to SK609”. For the same compound, the “cumulative intake, pre-cocaine” value in data set [5] (rat, in vivo, 10 days) is “higher cumulative intake of PRX compared to SK609”. In addition, in data set [1], the “dopamine release at baseline” value was “no effect on DA release or uptake”, the “dopamine uptake at baseline” value is reported as “no effect on DA release or uptake”, the “dopamine release after bath-applied cocaine” value is listed as “had no effect” and the “inhibition of dopamine uptake by cocaine” value is listed as “had no effect”. Moreover, the “pDAT levels, compound on its own” value in [2] (FIG. 5A) is listed as “significant increase in pDAT levels”. In addition, the “pDAT levels, combined with / post cocaine (CC)” value in [2] is listed as “significant increase in pDAT levels”.
